Experimental data from ChEMBL document CHEMBL1126245, “Synthesis and anti-HIV activity of 9-[c-4,t-5-bis(hydroxymethyl)cyclopent-2-en-r-1-yl]-9H-adenine” (J Med Chem, 1992).
Values after ≈ are worked out from the molar mass of the structure shown.

Legend:
MT4 = test: In vitro antiviral activity against HIV-1 in MT-4 Cell; format: functional; settings: Homo sapiens; for EC50: read-out: ED50 (the source's name); for IC50: read-out: ID50 (the source's name)
[1] = Therapeutic index (TI) was determined by dividing the ID50 by the ED50; format: cell-based; settings: human, MT4 cells; read-out: TI

For `Nc1nc(O)c2ncn(C3C=CC(CO)C3CO)c2n1` (stereo not given), the EC50 (MT4) was greater than 100 mg/L and the IC50 (MT4) was greater than 100 mg/L.

In the case of `Nc1ccn([C@H]2CC[C@@H](CO)O2)c(=O)n1` [ZALCITABINE], the EC50 (MT4) is reported as 0.011 mg/L (≈ 0.0521 µM), the IC50 (MT4) is reported as 27 mg/L (≈ 128 µM) and the selectivity ratio [1] is reported as 2450.
